Assay results reported in US20220125983A1, “MALODOR COUNTERACTING COMPOSITION AND AGENT AND THE USE THEREOF” (CHEMCOM S.A., priority 2019, published 2022).

What was measured:
[1] = test system: perception of the earthy olfactory note; assay: Sensory test: expert panel rating of odor intensity of earthy compounds without and with nefopam (Tedlar bags); assay type: in vivo, human; conditions: for Odor intensity without Nefopam, note A: earthy: scale 0 (no odor) to 5 (saturating odor), resolution 0.5, panel of five assessors; for Odor intensity of Geosmin with nefopam enantiomer as blocker, note A: earthy / Odor intensity of Geosmin with nefopam enantiomer as blocker, note B: camphoreous: Geosmin + enantiomer free base
Method: The composition comprising nefopam was prepared by diluting racemic nefopam in its free base form in ethanol at a concentration of 107 mg/ml The test comprised in a first step, microinjecting the earthy compound, nefopam or earthy compound+nefopam in 20 L TedlarTM bags specially conceived for gas sampling, previously loaded with a known volume of pure air (from oil free compressor with additional charcoal filters). The earthy compounds were solubilized in ethanol at a suitable concentration (see table 2) and injected in the 20 L […] bag. The final concentration in the bag varied between 7 mg/m^3' to 383 mg/m^3, (table 2), depending on the odor strength of the compound while the concentration of nefopam in the bags was fixed at 54 mg/m^3. [table] The odor presentation device comprised a cylinder filled with clean air. The bag was inserted in the cylinder and connected to a sampling installation in the cylinder by means of a valve. By controlled injection of clean air into the cylinder, the interior pressure was raised and the sampling air was pressed in a controlled manner out of the sample container through the opened valve. This sampling air was transferred to the nose of the corresponding sensory odor panel member by means of a funnel. By this means, each sensory odor panel member received an identical sample with a standardized volume flow and a constant provision time. The outlet flow rate was between 10-20 L/min (in order to avoid any mixing with ambient air before reaching the nose). The expert panel of five assessors entered the room 15 minutes before starting the test. The basic standard test was a rating in intensity and the use of the closest chemical descriptors according to the following order of presentation: 1. earthy compound 2. Mix: earthy compound (at same concentrations as for 1)+Nefopam. Each assessor could smell for few seconds. A pause of minimum 1 minute was considered between presentations. The individual rating was done with a resolution of 0.5 on a scale ranging from 0 (no odor) to 5 (saturating odor). Both enantiomers of nefopam, (+)-nefopam and (-)-nefopam in their free base from obtained as described in examples 1 and 2, respectively, were assessed separately as blockers of the perception of the earthy note of geosmin, using the same procedure as described in example 3.

human nose = conditions: as low as; cited from earlier work
[2] = earthy compound alone in bag at Table 2 concentration
[3] = earthy compound alone in bag at Table 2 concentration, scale 0 to 5
[4] = 2-ethylfenchol 188 mg/m^3 + racemic nefopam free base 54 mg/m^3 in bag, scale 0 to 5
[5] = 2-methylisoborneol 150 mg/m^3 + racemic nefopam free base 54 mg/m^3 in bag, scale 0 to 5
[6] = Ambrinol R 29 mg/m^3 + racemic nefopam free base 54 mg/m^3 in bag, scale 0 to 5
[7] = Ambrinol S 26 mg/m^3 + racemic nefopam free base 54 mg/m^3 in bag, scale 0 to 5
[8] = Ambrinol racemic 25 mg/m^3 + racemic nefopam free base 54 mg/m^3 in bag, scale 0 to 5
[9] = Geosmin 19 mg/m^3 + racemic nefopam free base 54 mg/m^3 in bag, scale 0 to 5
[10] = Huminol 11 mg/m^3 + racemic nefopam free base 54 mg/m^3 in bag, scale 0 to 5
[11] = Methyl geosmin 7 mg/m^3 + racemic nefopam free base 54 mg/m^3 in bag, scale 0 to 5
[12] = Patchouli oil 383 mg/m^3 + racemic nefopam free base 54 mg/m^3 in bag, scale 0 to 5
[13] = earthy compounds of Table 3, nefopam 54 mg/m^3
[14] = Example 4, same procedure as example 3, scale 0 to 5
[15] = Example 4, Geosmin alone, same procedure as example 3, scale 0 to 5

CC1(O)CCC2C(=CCCC2(C)C)C1 (racemic) [Ambrinol racemic, 2,5,5-trimethyl-1,3,4,4a,6,7-hexahydronaphthalen-2-ol]
Odor intensity without Nefopam, note A: earthy [1, 2]: 1.5
Odor intensity without Nefopam, note B: α-pinene [1, 3]: 2.5

CN1CCOC(c2ccccc2)c2ccccc2C1 (racemic) [Nefopam, (RS)-5-methyl-1-phenyl-1,3,4,6-tetrahydro-2,5-benzoxazocine]
Odor intensity with Nefopam, 2-ethylfenchol note A: earthy [1, 4]: 0
Odor intensity with Nefopam, 2-ethylfenchol note B: camphoreous [1, 4]: 3
Odor intensity with Nefopam, 2-methylisoborneol note A: earthy [1, 5]: 0
Odor intensity with Nefopam, 2-methylisoborneol note B: camphoreous [1, 5]: 2.5
Odor intensity with Nefopam, Ambrinol R note A: earthy [1, 6]: 0.5
Odor intensity with Nefopam, Ambrinol R note B: scatole [1, 6]: 3.5
Odor intensity with Nefopam, Ambrinol S note A: earthy [1, 7]: 0.5
Odor intensity with Nefopam, Ambrinol S note B: vetivert [1, 7]: 2
Odor intensity with Nefopam, Ambrinol racemic note A: earthy [1, 8]: 0
Odor intensity with Nefopam, Ambrinol racemic note B: α-pinene [1, 8]: 2.5
Odor intensity with Nefopam, Geosmin note A: earthy [1, 9]: 1
Odor intensity with Nefopam, Geosmin note B: camphoreous [1, 9]: 2.5
Odor intensity with Nefopam, Huminol note A: earthy [1, 10]: 1
Odor intensity with Nefopam, Huminol note B: camphoreous [1, 10]: 2
Odor intensity with Nefopam, Methyl Geosmin note A: earthy [1, 11]: 0.5
Odor intensity with Nefopam, Methyl Geosmin note B: α-pinene [1, 11]: 1.5
Odor intensity with Nefopam, Patchouli Oil note A: earthy [1, 12]: 0.5
Odor intensity with Nefopam, Patchouli Oil note B: α-pinene [1, 12]: 2.5
Intensity of the other olfactory notes associated to the different compounds in the presence of racemic nefopam [1, 13]: not significantly decreased
Typical earthy olfactory note associated with the tested compounds when smelled in the presence of racemic nefopam [1, 13]: strongly reduced

CCC1(O)C2(C)CCC(C2)C1(C)C (centres unmarked) [2-ethylfenchol, 6-ethyl-1,5,5-trimethylbicyclo[2.2.1]heptan-6-ol]
Odor intensity without Nefopam, note A: earthy [1, 2]: 3
Odor intensity without Nefopam, note B: camphoreous [1, 3]: 3.5

CC1(O)CC2CCC1(C)C2(C)C (centres unmarked) [2-methylisoborneol, 1,2,7,7-Tetramethylbicyclo[2.2.1]heptan-2-ol]
Odor intensity without Nefopam, note A: earthy [1, 2]: 3
Odor intensity without Nefopam, note B: camphoreous [1, 3]: 0
Detection threshold (human nose) (human nose): 25 ng/L

CN1CCO[C@@H](c2ccccc2)c2ccccc2C1 [(+)-Nefopam, (S)-5-methyl-1-phenyl-1,3,4,6-tetrahydro-2,5-benzoxazocine]
Odor intensity of Geosmin with nefopam enantiomer as blocker, note A: earthy [1, 14]: 3
Odor intensity of Geosmin with nefopam enantiomer as blocker, note B: camphoreous [1, 14]: 3

CN1CCO[C@H](c2ccccc2)c2ccccc2C1 [(−)-Nefopam, (R)-5-methyl-1-phenyl-1,3,4,6-tetrahydro-2,5-benzoxazocine]
Odor intensity of Geosmin with nefopam enantiomer as blocker, note A: earthy [1, 14]: 0
Odor intensity of Geosmin with nefopam enantiomer as blocker, note B: camphoreous [1, 14]: 3

CC1(C)CCC=C2C[C@@](C)(O)CC[C@H]21 [Ambrinol R, (2S, 4aS)-(−)-2,5,5-Trimethyl-1,2,3,4,4a,5,6,7-octahydro-naphthalen-2-ol]
Odor intensity without Nefopam, note A: earthy [1, 2]: 1
Odor intensity without Nefopam, note B: scatole [1, 3]: 3.5

CC1(C)CCC=C2C[C@](C)(O)CC[C@@H]21 [Ambrinol S, (2R, 4aR)-(+)-2,5,5-Trimethyl-1,2,3,4,4a,5,6,7-octahydro-naphthalen-2-ol]
Odor intensity without Nefopam, note A: earthy [1, 2]: 2.5
Odor intensity without Nefopam, note B: vetivert [1, 3]: 1.5

CC1CCCC2(C)CCCCC12O (centres unmarked) [Geosmin, 4,8a-dimethyl-1,2,3,4,5,6,7,8-octahydronaphthalen-4a-ol]
Odor intensity without blocker, note A: earthy [1, 15]: 3
Odor intensity without blocker, note B: camphoreous [1, 15]: 3
Odor intensity without Nefopam, note A: earthy [1, 2]: 3
Odor intensity without Nefopam, note B: camphoreous [1, 3]: 3
Detection threshold (human nose) (human nose): 10 ng/L

CCC1(O)C2(C)CCCC1(C)CC2 (centres unmarked) [Huminol, 8-ethyl-1,5-dimethylbicyclo[3.2.1]octan-8-ol]
Odor intensity without Nefopam, note A: earthy [1, 2]: 2.5
Odor intensity without Nefopam, note B: camphoreous [1, 3]: 2.5

CC1(C)CCCC2(C)CCCCC12O (centres unmarked) [Methyl Geosmin, 4,4,8a-trimethyl-1,2,3,4,5,6,7,8-octahydronaphthalen-4a-ol]
Odor intensity without Nefopam, note A: earthy [1, 2]: 2.5
Odor intensity without Nefopam, note B: α-pinene [1, 3]: 1.5
